The values that follow are results of earlier work, collected in patent publication US20240189459A1, “METASTABLE-FREE LANTHANIDE BASED CONTRAST AGENTS AND METHOD” (Inventure LLC, priority 2022, published 2024).

Structures are written as SMILES.

For the data set the following is noted: thermodynamic stability constant of the DOTA complex with the listed metal ion.
For `O=C([O-])CN1CCN(CC(=O)[O-])CCN(CC(=O)[O-])CCN(CC(=O)[O-])CC1.[Tm+3]` [TM^+3], the “Stability Constant” value is recorded as 24.4.

`O=C([O-])CN1CCN(CC(=O)[O-])CCN(CC(=O)[O-])CCN(CC(=O)[O-])CC1.[Fe+3]` [Fe^+3]: the “Stability Constant” value is 29.4.

On to `O=C([O-])CN1CCN(CC(=O)[O-])CCN(CC(=O)[O-])CCN(CC(=O)[O-])CC1.[Pr+3]` [Pr^+3], for which the “Stability Constant” value was 23.

As to `O=C([O-])CN1CCN(CC(=O)[O-])CCN(CC(=O)[O-])CCN(CC(=O)[O-])CC1.[Cu+2]` [Cu^+2], the “Stability Constant” value is 22.3.

On to `O=C([O-])CN1CCN(CC(=O)[O-])CCN(CC(=O)[O-])CCN(CC(=O)[O-])CC1.[Gd+3]` [Gd^+3], for which the “Stability Constant” value is recorded as 24.7.

For the compound `O=C([O-])CN1CCN(CC(=O)[O-])CCN(CC(=O)[O-])CCN(CC(=O)[O-])CC1.[Eu+3]` [Eu^+3], the “Stability Constant” value is recorded as 23.5.

`O=C([O-])CN1CCN(CC(=O)[O-])CCN(CC(=O)O)CCN(CC(=O)O)CC1.[Ca+2]` [Ca^+2]: the “Stability Constant” value was 17.2.

`O=C([O-])CN1CCN(CC(=O)[O-])CCN(CC(=O)[O-])CCN(CC(=O)[O-])CC1.[Dy+3]` [Dy^+3]: the “Stability Constant” value was 24.8.

For the compound `O=C([O-])CN1CCN(CC(=O)O)CCN(CC(=O)O)CCN(CC(=O)O)CC1.[Na+]` [Na^+1], the “Stability Constant” value is listed as 4.2.

For `O=C([O-])CN1CCN(CC(=O)[O-])CCN(CC(=O)O)CCN(CC(=O)O)CC1.[Zn+2]` [Zn^+2], the “Stability Constant” value is listed as 20.8.

Take `O=C([O-])CN1CCN(CC(=O)[O-])CCN(CC(=O)O)CCN(CC(=O)O)CC1.[Mg+2]` [Mg^+2]: the “Stability Constant” value is listed as 11.9.
